The text below walks through data of patent publication US20140088056A1, “CARDIAC GLYCOSIDES ARE POTENT INHIBITORS OF INTERFERON-BETA GENE EXPRESSION” (priority 2010, published 2014).

One test has as its system Namalwa cells. The experiment in a line: RT-PCR of virus induced IFNβ gene expression in Namalwa cells. The test is classed as cell-based, human.
The subject of test [1] is IFNβ promoter. The experiment in a line: IFNβ reporter induced by over-expression of RIG-I, MAVS or TBK1 in 293T cells. The test is classed as cell-based, human.
Another test concerns 293T cells. The test can be described thus: Intracellular sodium concentration measurement (SBFI) in 293T cells. The test is classed as cell-based, human. The conditions noted are these: 1 μM, 30 minutes; from about 20 mM without. How it is done: Bound RIG-I protein was analyzed by western blot (top panel). The expression of IFNβ and Cxcl 10 genes in these cells was also analyzed by RT-PCR (bottom panel). FIG. 3B, high salt concentration inhibits RIG-I helicase activities while the effect on RNA binding is minor. Recombinant RIG-I protein was incubated with dsRNA (67 bp) in the presence of increasing NaCl and KCl concentrations. RNA binding was monitored by native agarose gel analysis (top panel). For the ATPase activities, samples were adjusted to 1 mM ATP and further incubated for 15 min at 37° C., free phosphate released was measured with BIOMOL GREEN reagent. The image of the plate was shown in the bottom panel, and signals from the reading were quantified and graphed in the middle panel. The lanes of the gel, bars of the graph and wells in the ATPase assay are aligned according to experimental conditions. […] 293T cells were loaded with 10 μM SBFI-AM in the presence of 0.02% Pluronic F-127 for 1 hour at 37° C. […] To generate the standard curve, SBFI-Am loaded cells were exposed to solutions with increasing concentrations of sodium in the presence of 10 μM gramicidin for 30 minutes at 37° C. and 340/380 nm fluorescence ratio determined. […]

Test [2] relates to IFNβ promoter. The test can be described thus: cells. The test is classed as cell-based, human.
Method: 293T cells were transfected with the IFNβ promoter driving a firefly luciferase reporter together a reference renilla luciferase reporter plasmid. […] Firefly luciferase activities were measured after another 24 hrs and normalized to that of renilla activities.
293T cells were transfected with an IFNβ promoter driving luciferase reporter, 24 hrs later, increasing amounts (10 nM to 10 uM) of Ouabain (FIG. 8A) or digoxin (FIG. 8B) were added to cells before the Sendai virus infection. Luciferase activities were measured one day later.
Approximately 40,000 293T cells were seeded in a 96 well plate, and co-transfected with IFNβ-110 firefly luciferase reporter and renilla luciferase plasmids (Fitzgerald, K. A. et al. IKKepsilon and TBK1 are essential components of the IRF3 signaling pathway. Nat Immunol 4, 491-6 (2003)). After 24 hrs, cells were treated with various chemicals at the indicated concentrations, and sendai virus infection was initiated one hour later. After another 24 hrs, cells were lysed and subjected to Dual-Glo luciferase assay analysis (Promega) with an Analyst AD plate reader.
Human 293T cells were transfected with the IFNβ promoter driving the expression of luciferase construct. The cells were treated with a library of chemical compounds, and sendai virus (SeV) infection initiated one hour later. Luciferase activity was measured after another 24 hrs of culture. Signals were normalized to the samples not treated with chemicals.
In another test the test system is MEFs. The test can be described thus: RT-PCR of IFNβ induction in mouse embryonic fibroblasts (MEFs). The test is classed as cell-based. Particulars: 1 uM; SeV, dsRNA, dsDNA. From the text: As discussed above, the mouse ATP1a1 protein is not sensitive to cardiac glycoside binding.
The test system of test [3] is PRDIII/I element of the IFNβ promoter. The test is classed as cell-based, human. The conditions noted are these: 1 uM, compared with no drug treatment.
Method: 293T cells were transfected with the IFNβ promoter driving a firefly luciferase reporter together a reference renilla luciferase reporter plasmid. […] Firefly luciferase activities were measured after another 24 hrs and normalized to that of renilla activities. […] Experiments were conducted same as in A, but PRDIV, PRDIII/I and PRDII driving luciferase reporter plasmids were used instead.
The next test concerns LPS signaling. The experiment in a line: LPS induced gene expression in THP-1 cells. The test is classed as cell-based, human. The conditions noted are these: 1 μM.

Molecules are shown by their SMILES.

From the text for LPS signaling: Total RNA or protein were harvested for the expression analysis of specific genes by RT-PCR or Western blot.
Specifically, the inventors tested interferon (IFN), tumor necrosis factor (TNF), epidermal growth factor (EGF) signaling, and treatment with lipopolysacchoride (LPS).
From the text for Namalwa cells: 6 hrs later, cells were harvested and RNA extracted for RT-PCR analysis for the expression of various genes.

With `C[C@]12CC[C@H](O)C[C@H]1CC[C@@H]1[C@H]2CC[C@]2(C)[C@@H](c3ccc(=O)oc3)CC[C@]12O` [Bufalin], in the test with Namalwa cells, the “virus-induced IFNβ gene expression in Namalwa cells” value is recorded as “Strong inhibition”. Moreover, in the test on IFNβ promoter [1], the “IFNβ reporter induction by MAVS over-expression” value was “no effect”, the “IFNβ reporter induction by TBK1 over-expression” value is “little effect” and the “virus induction of the IFNβ reporter when RIG-I was over-expressed” value is reported as “only slightly reduced”. Further, in the test on 293T cells, the intracellular sodium concentration entry is given as “over 120 mM”. The “inhibition of IFNβ expression” value in the test with IFNβ promoter [2] (1 uM) is reported as “more than 90%”. In the test on IFNβ promoter [2] (10 μM, chemical library screen), the “Inhibition % @ 10 μM of virus induced IFNβ expression” value is on record as 99.2%. In addition, in the test on IFNβ promoter [2] (1 and 10 uM, no virus), the “IFN expression in the absence of virus infection” value was “weakly induced”. Also, in the test with IFNβ promoter [2] (Homo sapiens, HEK-293T, read-out: IC50 for inhibition of virus induced IFNβ expression), the IC50 was determined as 4.3 nM. The “induction of IFNβ gene by various inducers in MEFs” value in the test on MEFs is “little effects”. In test [3], the “repression of viral induction of luciferase expression, PRDIII/I reporter” value is above 86%. Besides, the “LPS induction of Il-8, TNF and IKBa” value with LPS signaling was “minimal”. For the same compound, the “LPS induced expression of Cxcl10 gene” value in the test on LPS signaling (LPS 20 ng/ml, 2 hours) is given as “impaired”.

In general, IC50 refers to the concentration that gives 50% inhibition.
